# From paper PMC13469122, “Structural and mechanistic insights into primer synthesis initiation by DNA primase” (Nature Communications, 2026)
# Columns and labels:
# [1] = target: T1, HBD (helix bundle domain) of pRN1 primase (Saccharolobus islandicus, UniProt Q54324); experiment: solution NMR; assay type: binding
# T1 construct: Helix bundle domain 261-370 plus linker 256-260; residual GHM (253-255) after TEV cleavage of N-terminal His6; E. coli BL21(DE3) CodonPlus, pET28c
# [2] = target: T2, primase (pRN1 primase, residues 40-370) (Saccharolobus islandicus, UniProt Q54324, H145A); experiment: solid-state hPH NMR (also NHHP, CHHP); assay type: binding; conditions: with DNA^CT and ATP^N, 309 K; NTP^S site
# T2 construct: Catalytic domain, linker and helix bundle domain, residues 40-370; C-terminal His6 without cleavage site; E. coli BL21(DE3) CodonPlus, pET28c
# [3] = target: T3, primase (pRN1 primase, residues 40-370) (Saccharolobus islandicus, UniProt Q54324); experiment: solid-state hPH NMR; assay type: binding; conditions: with DNA^CT; triphosphate at NTP^S site
# T3 construct: Catalytic domain, linker and helix bundle domain, residues 40-370; C-terminal His6 without cleavage site; E. coli BL21(DE3) CodonPlus, pET28c
# T3 sequence (Q54324 entry or part of it): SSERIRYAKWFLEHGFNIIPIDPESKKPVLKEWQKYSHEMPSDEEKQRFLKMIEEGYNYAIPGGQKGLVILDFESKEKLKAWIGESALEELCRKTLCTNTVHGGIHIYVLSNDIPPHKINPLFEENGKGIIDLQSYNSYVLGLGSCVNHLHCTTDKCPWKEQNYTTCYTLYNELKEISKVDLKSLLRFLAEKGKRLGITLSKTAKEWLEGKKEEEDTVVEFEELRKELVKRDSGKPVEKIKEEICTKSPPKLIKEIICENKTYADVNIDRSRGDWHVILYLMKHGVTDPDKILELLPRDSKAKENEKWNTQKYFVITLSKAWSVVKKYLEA
# [4] = target: T4, pRN1 primase helix bundle domain (HBD) (Sulfolobus islandicus plasmid pRN1, UniProt Q54324 256-370); experiment: ITC; 1 mM dGTP, 10 mM Mg2+; Kd not printed in the material; 25 mM sodium phosphate, 50 mM NaCl, 10 mM MgCl2, pH 7.0; ITC and HBD NMR 298 K, primase NMR 313 K; conditions: protein: recombinant; tags: non-native GHM (numbered 253-255) left after TEV cleavage of N-terminal His6; single strand
# T4 sequence: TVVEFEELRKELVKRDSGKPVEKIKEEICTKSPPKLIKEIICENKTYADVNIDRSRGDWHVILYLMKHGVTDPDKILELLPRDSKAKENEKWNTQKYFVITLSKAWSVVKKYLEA
# pRN1 primase H145A = target: T5, pRN1 primase H145A (Sulfolobus islandicus plasmid pRN1, UniProt Q54324 40-370, H145A); experiment: NMR (solid-state hPH, NHHP, CHHP); ATPN + dGTPC; 25 mM sodium phosphate, 50 mM NaCl, 10 mM MgCl2, pH 7.0; ITC and HBD NMR 298 K, primase NMR 313 K; conditions: protein: recombinant; tags: C-terminal His6, not cleaved; single strand
# T5 sequence: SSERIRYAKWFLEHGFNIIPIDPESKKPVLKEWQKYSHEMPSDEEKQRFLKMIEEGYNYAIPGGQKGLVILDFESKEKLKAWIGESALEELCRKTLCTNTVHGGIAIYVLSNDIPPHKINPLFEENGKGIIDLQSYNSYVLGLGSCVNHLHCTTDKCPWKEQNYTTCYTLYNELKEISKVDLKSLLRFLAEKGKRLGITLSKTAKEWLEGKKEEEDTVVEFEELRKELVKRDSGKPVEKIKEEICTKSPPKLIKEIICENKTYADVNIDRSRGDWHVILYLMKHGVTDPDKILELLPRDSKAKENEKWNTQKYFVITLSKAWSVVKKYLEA
molecule,measurement,setting,value
Nc1ncnc2c1ncn2[C@@H]1O[C@H](COP(=O)(O)OP(=O)(O)OP(=O)(O)O)[C@@H](O)[C@H]1O [ATP],solution NMR,"[1]; with DNA^CT and dGTP, NTP^W site (displaced from NTP^S site by dGTP)",the second ATP remains bound at the NTP^W site without base-pairing with T2
Nc1nc2c(ncn2[C@H]2C[C@H](O)[C@@H](COP(=O)(O)OP(=O)(O)CP(=O)(O)O)O2)c(=O)[nH]1 [dGTP^C],"solid-state hPH NMR (also NHHP, CHHP)",[2],"ATP^N binds at the NTP^W site, while dGTP^C occupies the NTP^S site"
Nc1nc2c(ncn2[C@H]2C[C@H](O)[C@@H](COP(=O)(O)OP(=O)(O)OP(=O)(O)O)O2)c(=O)[nH]1 [dGTP],solution NMR,"[1]; with DNA^CT and ATP, NTP^S site",dGTP displaces ATP at the NTP^S site to base-pair with C1
Nc1nc2c(ncn2[C@H]2C[C@H](O)[C@@H](COP(=O)(O)O[C@H]3[C@@H](O)[C@H](n4cnc5c(N)ncnc54)O[C@@H]3COP(=O)(O)OP(=O)(O)NP(=O)(O)O)O2)c(=O)[nH]1,solid-state hPH NMR,[3],the solid-state hPH NMR spectrum of the primase-DNA^CT-pNHppApG complex
CTGTGCTCA (ssDNA) [DNACT],binding signal,[4],~5 fold tighter GTG recognition than with ATP
same,binding result,pRN1 primase H145A,binds
